These results are taken from patent publication US6559330B1, “CALCIUM COMPLEX OF [[(4R)-4-[BIS{CARBOXY-.KAPPA.O)METHYL]AMINO-.KAPPA.N]-6,9-BIS[(CARBOXY.KAPPA.O)METHYL]-1-[(4,4-DIPHENYLCYCLOHEXYL)OXY]-1-HYDROXY-2-OXA-6,9-DIAZA-1-PHOSPHAUNDECAN-11-YLIC-ACID-.KAPPA.N6,.KAPPA.N9,.KAPPA.011]1-OXIDATO(6-)]-, HEXAHYDROGEN, ITS SALTS, PHARMACEUTICAL AGENTS THAT …” (Schering Aktiengesellschaft, priority 1999, dated 2003).

Data set [1] in a line: HPLC content of Gd-MS-325 in the formulation after heating (100% method, external standard). The class given is physicochemical. The method, then: The low content and the yellow coloration indicate decomposition.
For comparison: Content after HPLC/95° C. (6 hours): 98.9%.

The target in data set [2] is human serum albumin (HSA) (Homo sapiens, UniProt P02768). The note with it: cited from earlier work.
human serum albumin (HSA), sequence (P02768 25-609): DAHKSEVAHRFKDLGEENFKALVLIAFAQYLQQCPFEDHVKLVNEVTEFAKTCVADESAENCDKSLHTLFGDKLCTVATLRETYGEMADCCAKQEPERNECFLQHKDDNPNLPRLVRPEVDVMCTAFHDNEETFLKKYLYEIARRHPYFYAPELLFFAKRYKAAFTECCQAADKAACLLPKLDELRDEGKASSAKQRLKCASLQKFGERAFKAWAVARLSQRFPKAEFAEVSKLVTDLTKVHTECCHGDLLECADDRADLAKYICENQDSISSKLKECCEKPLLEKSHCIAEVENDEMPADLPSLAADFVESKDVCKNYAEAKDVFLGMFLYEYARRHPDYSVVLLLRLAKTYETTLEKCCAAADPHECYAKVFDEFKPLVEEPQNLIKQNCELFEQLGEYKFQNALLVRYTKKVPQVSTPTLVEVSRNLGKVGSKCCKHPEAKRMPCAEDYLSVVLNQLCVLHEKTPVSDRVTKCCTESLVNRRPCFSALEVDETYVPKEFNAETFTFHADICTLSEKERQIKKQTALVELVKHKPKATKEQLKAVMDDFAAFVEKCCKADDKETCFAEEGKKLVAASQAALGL
For data set [3] the following is noted: blood pool agent; cited from earlier work.

For “gadolinato(3-),[[(4R)-4[bis[(carboxy-.kappa.O)methyl]amino-.kappa.N]-6,9-bis[(carboxy-.kappa.O)methyl]-1-[(4,4-diphenylcyclohexyl)oxy]-1-hydroxy-2-oxa-6,9-diaza-1-phosphaundecan-11-ylic-acid-.kappa.N6,.kappa.N9,kappa.011]1-oxidato(6-)]-trihydrogen [Gd-MS-325]”, the “content of Gd-MS-325 (HPLC)” value in data set [1] (95° C. (6 hours), for comparison) was determined as 98.9%; in data set [1] (in-situ formulation refluxed for 48 hours, low content and yellow coloration indicate decomposition) it was 96.3%. Besides, the “binding to human serum albumin (HSA)” value in data set [2] is listed as “binds to human serum albumin (HSA)”. The “retention in the intravascular space” value in data set [3] is “retained in the intravascular space”.
